Laboratory results as given in patent US20210255193A1, “LYSINE REACTIVE PROBES AND USES THEREOF” (The Scripps Research Institute, priority 2017, published 2021).

How the values were obtained:
[1] = biological target: T1, UBA6 Ubiquitin-like modifier-activating enzyme 6 (Homo sapiens, UniProt A0AVT1); assay: competitive isoTOP-ABPP; type: binding; conditions: for R value (DMSO/fragment) for probe 1 labeling: A0AVT1_K409
T1 construct: isoTOP-ABPP experiments performed in cell lysates (in vitro); endogenous in cells; host or cells: MDA-MB-231 soluble lysate
T1 sequence (A0AVT1 1-1052): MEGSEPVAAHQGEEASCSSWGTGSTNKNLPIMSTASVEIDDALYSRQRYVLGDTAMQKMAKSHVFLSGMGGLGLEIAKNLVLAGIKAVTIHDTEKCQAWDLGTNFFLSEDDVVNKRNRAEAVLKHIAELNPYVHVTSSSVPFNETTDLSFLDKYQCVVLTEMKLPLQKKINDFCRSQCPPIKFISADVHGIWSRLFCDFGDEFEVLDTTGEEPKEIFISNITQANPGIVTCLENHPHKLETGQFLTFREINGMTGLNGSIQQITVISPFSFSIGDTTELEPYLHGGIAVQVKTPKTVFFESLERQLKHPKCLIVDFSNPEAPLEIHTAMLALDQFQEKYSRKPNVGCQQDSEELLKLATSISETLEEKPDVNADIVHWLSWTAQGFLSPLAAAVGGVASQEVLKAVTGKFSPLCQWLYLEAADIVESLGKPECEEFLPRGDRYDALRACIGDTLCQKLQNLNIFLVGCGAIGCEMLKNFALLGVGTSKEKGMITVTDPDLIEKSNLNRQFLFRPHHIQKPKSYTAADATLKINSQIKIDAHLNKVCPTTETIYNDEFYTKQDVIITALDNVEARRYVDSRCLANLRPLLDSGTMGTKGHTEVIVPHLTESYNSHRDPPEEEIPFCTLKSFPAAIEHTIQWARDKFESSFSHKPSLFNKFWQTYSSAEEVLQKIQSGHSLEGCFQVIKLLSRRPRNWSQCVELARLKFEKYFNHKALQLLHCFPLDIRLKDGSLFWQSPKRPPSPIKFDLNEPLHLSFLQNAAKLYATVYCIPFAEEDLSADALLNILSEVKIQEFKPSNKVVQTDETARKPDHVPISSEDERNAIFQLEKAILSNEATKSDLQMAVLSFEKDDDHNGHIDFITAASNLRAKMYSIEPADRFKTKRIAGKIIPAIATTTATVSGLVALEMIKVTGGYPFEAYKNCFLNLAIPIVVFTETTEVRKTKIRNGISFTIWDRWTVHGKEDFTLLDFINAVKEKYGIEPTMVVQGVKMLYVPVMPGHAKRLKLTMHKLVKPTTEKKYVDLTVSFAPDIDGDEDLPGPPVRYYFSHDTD
Outline: (§1)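 Competition format: fragment (50 μM activated ester, 100 μM guanidinylating agent) versus vehicle in lysate, then lysine probe STP-alkyne at 0.1 mM for 1 h. Quantitation by light/heavy TEV-tag MS1 peak areas, reported as R.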

[2] = biological target: T2, EIF3G Eukaryotic translation initiation factor 3 subunit (Homo sapiens, UniProt O75821); assay: competitive isoTOP-ABPP; type: binding; conditions: for R value (DMSO/fragment) for probe 1 labeling: O75821_K280; for R value (DMSO/fragment) for probe 1 labeling / isoTOP-ABPP reactivity ratio at lysine O75821_K280: 231 sol; for isoTOP-ABPP ratio, lysine O75821_K280: 50 uM_231_sol_in vitro
T2 construct: isoTOP-ABPP experiments performed in cell lysates (in vitro); endogenous in cells; host or cells: MDA-MB-231 soluble lysate
T2 sequence (O75821 whole entry, the tested form may be a part): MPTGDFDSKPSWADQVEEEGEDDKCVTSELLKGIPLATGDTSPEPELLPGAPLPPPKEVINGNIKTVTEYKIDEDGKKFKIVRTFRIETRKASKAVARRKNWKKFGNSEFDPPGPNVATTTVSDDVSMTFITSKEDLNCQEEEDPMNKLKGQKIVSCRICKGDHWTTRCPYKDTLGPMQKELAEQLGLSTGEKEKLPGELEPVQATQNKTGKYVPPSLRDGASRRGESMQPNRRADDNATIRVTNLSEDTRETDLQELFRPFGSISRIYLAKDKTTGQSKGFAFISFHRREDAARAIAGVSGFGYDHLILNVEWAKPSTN
Outline: as §1

Cn1cc(CC(=O)Oc2c(F)c(F)c(F)c(F)c2F)c2ccccc21 [fragment 22, Pentafluorophenyl 2-(1-methyl-1H-indol-3-yl)acetate]
R value (DMSO/fragment) for probe 1 labeling ([1]; 50 uM, 231 sol, in vitro): 1.6
R value (DMSO/fragment) for probe 1 labeling ([2]; 50 uM, in vitro): 0.6

O=C(ON1C(=O)CCC1=O)c1cc(C(F)(F)F)cc(C(F)(F)F)c1 [fragment 46, 3,5-Bis(trifluoromethyl)benzoic acid NHS ester]
isoTOP-ABPP ratio, lysine O75821_K280 [2]: 0.8

O=C(CCc1cn(-c2ccccc2)nc1-c1ccccc1)Oc1c(F)c(F)c(F)c(F)c1F [fragment 19, Pentafluorophenyl 3-(1,3-diphenyl-1H-pyrazol-4-yl)propanoate]
R value (DMSO/fragment) for probe 1 labeling ([1]; 50 uM, 231 sol, in vitro): 1.5

O=C(Oc1ccc([N+](=O)[O-])cc1[N+](=O)[O-])C(c1ccccc1)c1ccccc1 [fragment 30, 2,4-Dinitrophenyl 2,2-diphenylacetate]
isoTOP-ABPP reactivity ratio at lysine O75821_K280 ([2]; 50 uM, in vitro): 1.0

O=C(CCc1cn(-c2ccccc2)nc1-c1ccccc1)Oc1ccc([N+](=O)[O-])cc1[N+](=O)[O-] [fragment 29, 2,4-Dinitrophenyl 3-(1,3-diphenyl-1H-pyrazol-4-yl)propanoate]
isoTOP-ABPP reactivity ratio at lysine O75821_K280 ([2]; 50 uM, in vitro): 5.3

N#Cc1ccc(C(=O)Oc2ccc([N+](=O)[O-])cc2[N+](=O)[O-])cc1 [fragment 44, 2,4-Dinitrophenyl 4-cyanobenzoate]
isoTOP-ABPP ratio, lysine O75821_K280 [2]: 0.9

O=C(CCc1ccc2c(c1)OCO2)Oc1ccc([N+](=O)[O-])cc1[N+](=O)[O-] [fragment 45, 2,4-Dinitrophenyl 3-(benzo[d][1,3]dioxol-5-yl)propanoate]
isoTOP-ABPP ratio, lysine A0AVT1_K409 ([1]; 50 uM_231_sol_in vitro): 6.3
isoTOP-ABPP ratio, lysine O75821_K280 [2]: 0.9

O=C(Oc1c(F)c(F)c(F)c(F)c1F)C(c1ccccc1)c1ccccc1 [fragment 20, Pentafluorophenyl 2,2-diphenylacetate]
R value (DMSO/fragment) for probe 1 labeling ([2]; 50 uM, in vitro): 0.9

O=C(Oc1ccc([N+](=O)[O-])cc1[N+](=O)[O-])c1ccc2ccccc2n1 [fragment 35, 2,4-Dinitrophenyl quinoline-2-carboxylate]
isoTOP-ABPP ratio (R) at liganded lysine O75821_K280 ([2]; 50 uM, in vitro, sol, 231): 1.0

O=C(Oc1c(F)c(F)c(F)c(F)c1F)c1cc(C(F)(F)F)cc(C(F)(F)F)c1 [fragment 21, Pentafluorophenyl 3,5-bis(trifluoromethyl)benzoate]
R value (DMSO/fragment) for probe 1 labeling ([2]; 50 uM, in vitro): 1.7

CC(C)(C)OC(=O)NCCCC(=O)Oc1ccc([N+](=O)[O-])cc1[N+](=O)[O-] [fragment 41, 2,4-Dinitrophenyl 4-((tert-butoxycarbonyl)amino)butanoate]
isoTOP-ABPP ratio (R) at liganded lysine A0AVT1_K409 ([1]; 50 uM, in vitro, sol, 231): 6.6

O=C(Oc1c(F)c(F)c(F)c(F)c1F)c1ccc2ccccc2n1 [fragment 25, Pentafluorophenyl quinoline-2-carboxylate]
isoTOP-ABPP reactivity ratio at lysine A0AVT1_K409 ([1]; 50 uM, 231 sol, in vitro): 1.4

COc1cc(CCC(=O)Oc2c(F)c(F)c(F)c(F)c2F)cc(OC)c1OC [fragment 23, Pentafluorophenyl 3-(3,4,5-trimethoxyphenyl)propanoate]
R value (DMSO/fragment) for probe 1 labeling ([1]; 50 uM, 231 sol, in vitro): 1.3
